Numbered stars: 1 amine (or outer) side, 2 acyl side, 3 side chain; on linkers, the order of the positions; unused ones are H or OH. Bridge positions count the residues as written; N and C are the ends. Peptide text beside a SMILES is read from it. I, II: the chains in the order shown. * marks the point of attachment. Estradiol(3-OCH2CO,17-OSuc) = C[C@]12CC[C@@H]3c4ccc(OCC(=O)[*:1])cc4CC[C@H]3[C@@H]1CC[C@@H]2OC(=O)CCC(=O)[*:2]; X1 = C[C@]12CC[C@@H]3c4ccc(OCC(=O)*)cc4CC[C@H]3[C@@H]1CCC2=O
Legend:
Mus musculus [1] = experiment: Antiosteoporosis activity against ovariectomized ICR mouse assessed as serum calcium level at 110.3 nmol/kg, po after 30 mins; format: functional
Mus musculus [2] = experiment: Antiosteoporosis activity against ovariectomized ICR mouse assessed as serum phosphorous level at 110.3 nmol/kg, po after 30 mins; format: functional
Mus musculus [3] = experiment: Antiosteoporosis activity against ovariectomized ICR mouse assessed as serum ALP activity at 110.3 nmol/kg, po after 30 mins; format: functional
Mus musculus [4] = experiment: Antiosteoporosis activity against ovariectomized ICR mouse assessed as dry femur weight at 110.3 nmol/kg, po after 30 mins; format: functional
Mus musculus [5] = experiment: Antiosteoporosis activity against ovariectomized ICR mouse assessed as femur ash weight at 110.3 nmol/kg, po after 30 mins; format: functional
Mus musculus [6] = experiment: Antiosteoporosis activity against ovariectomized ICR mouse assessed as femur length at 110.3 nmol/kg, po after 30 mins; format: functional
Mus musculus [7] = experiment: Antiosteoporosis activity against ovariectomized ICR mouse assessed as femur calcium content at 110.3 nmol/kg, po after 30 mins; format: functional
Mus musculus [8] = experiment: Antiosteoporosis activity against ovariectomized ICR mouse assessed as femur phosphorous content at 110.3 nmol/kg, po after 30 mins; format: functional
Mus musculus [9] = experiment: Antiosteoporosis activity against ovariectomized ICR mouse assessed as mineral content at 110.3 nmol/kg, po after 30 mins; format: functional
Mus musculus [10] = experiment: Toxicity in ovariectomized ICR mouse assessed as effect on spleen weight at 110.3 nmol/kg, po after 4 weeks; format: organism-based; conditions: in vivo, 672 h
Mus musculus [11] = experiment: Toxicity in ovariectomized ICR mouse assessed as effect on lung weight at 110.3 nmol/kg, po after 4 weeks; format: organism-based; conditions: in vivo, 672 h
Mus musculus [12] = experiment: Toxicity in ovariectomized ICR mouse assessed as effect on kidney weight at 110.3 nmol/kg, po after 4 weeks; format: organism-based; conditions: in vivo, 672 h
Mus musculus [13] = experiment: Toxicity in ovariectomized ICR mouse assessed as effect on liver weight at 110.3 nmol/kg, po after 4 weeks; format: organism-based; conditions: in vivo, 672 h
Mus musculus [14] = experiment: Toxicity in ovariectomized ICR mouse assessed as effect on body weight at 110.3 nmol/kg, po after 4 weeks; format: organism-based; conditions: in vivo, 672 h
Mus musculus [15] = experiment: Toxicity in ovariectomized ICR mouse assessed as tail bleeding time at 110.3 nmol/kg, po for 30 mins; format: organism-based; conditions: in vivo, 0.5 h
Mus musculus [16] = experiment: Toxicity in ovariectomized ICR mouse assessed as tail bleeding time at 110.3 nmol/kg, po for 90 mins; format: organism-based; conditions: in vivo, 1.5 h
Mus musculus [17] = experiment: Toxicity in ovariectomized ICR mouse assessed as change in uterine weight at 110.3 nmol/kg, po after 4 weeks; format: organism-based; conditions: in vivo, 672 h

| Compound | Activity (Mus musculus [1]) | Activity (Mus musculus [2]) | Activity (Mus musculus [3]) | Activity (Mus musculus [4]) | Activity (Mus musculus [5]) | Activity (Mus musculus [6]) | Activity (Mus musculus [7]) | Activity (Mus musculus [8]) | Activity (Mus musculus [9]) | Activity (Mus musculus [10]) | Activity (Mus musculus [11]) | Activity (Mus musculus [12]) | Activity (Mus musculus [13]) | Activity (Mus musculus [14]) | Activity (Mus musculus [15]) | Activity (Mus musculus [16]) | Activity (Mus musculus [17]) |
| --- | --- | --- | --- | --- | --- | --- | --- | --- | --- | --- | --- | --- | --- | --- | --- | --- | --- |
| C[C@]12CC[C@@H]3c4ccc(OCC(=O)N[C@@H](CCCNC(=N)N)C(=O)NCC(=O)N[C@@H](CC(=O)O)C(=O)N[C@@H](Cc5ccccc5)C(=O)N[C@@H](CCCNC(=N)N)C(=O)NCC(=O)N[C@@H](CC(=O)O)C(=O)N[C@@H](Cc5ccccc5)C(=O)O)cc4CC[C@H]3[C@@H]1CCC2=O (X1-RGDFRGDF-OH) | 3.15 mM | 3.01 mM | 15.06 U/L | 55.26 mg | 35.24 mg | 1.64 cm | 59.92% | 20.33% | 0.61% | Non-toxic | Non-toxic | Non-toxic | Non-toxic | Non-toxic | 579 s | 574 s | 0.051 g |
| C[C@]12CC[C@@H]3c4ccc(OCC(=O)N[C@@H](CCCNC(=N)N)C(=O)NCC(=O)N[C@@H](CC(=O)O)C(=O)N[C@@H](CO)C(=O)O)cc4CC[C@H]3[C@@H]1CC[C@@H]2OC(=O)CCC(=O)N[C@@H](CCCNC(=N)N)C(=O)NCC(=O)N[C@@H](CC(=O)O)C(=O)N[C@@H](CO)C(=O)O (I: RGDS-OH / II: RGDS-OH; linker I:N-II:N via Estradiol(3-OCH2CO,17-OSuc)) | 3.22 mM | 2.99 mM | 19.61 U/L | 55.22 mg | 35.6 mg | 1.64 cm | 61.05% | 20.35% | 0.62% | Non-toxic | Non-toxic | Non-toxic | Non-toxic | Non-toxic | 580 s | 570 s | 0.05 g |
| CC(C)[C@H](NC(=O)[C@H](CC(=O)O)NC(=O)CNC(=O)[C@H](CCCNC(=N)N)NC(=O)CCC(=O)O[C@H]1CC[C@H]2[C@@H]3CCc4cc(OCC(=O)N[C@@H](CCCNC(=N)N)C(=O)NCC(=O)N[C@@H](CC(=O)O)C(=O)N[C@H](C(=O)O)C(C)C)ccc4[C@H]3CC[C@]12C)C(=O)O (I: RGDV-OH / II: RGDV-OH; linker I:N-II:N via Estradiol(3-OCH2CO,17-OSuc)) | 3.17 mM | 2.84 mM | 19.94 U/L | 56.46 mg | 35.75 mg | 1.66 cm | 61.56% | 20.94% | 0.62% | Non-toxic | Non-toxic | Non-toxic | Non-toxic | Non-toxic | 591 s | 532 s | 0.059 g |

Reference: ChEMBL document CHEMBL1151896, “3D QSAR of novel estrogen-RGD peptide conjugates: getting insight into structural dependence of anti-osteoporosis activity and side effect of estrogen in ERT” (Bioorg Med Chem, 2009)
